Assay results from ChEMBL document CHEMBL3045506, “Spore Germination Self-Inhibitors from Plant Pathogenic Fungi” (1997).
≈ marks a conversion by molar mass, not a printed value.

Legend:
Assay type in all cases: functional
[1] = tested on: Colletotrichum gloeosporioides; test: Antifungal activity against Colletotrichum gloeosporioides f. sp. jussiaea assessed as conidial germination at 30 ppm after 48 hr by microscopic analysis
[2] = tested on: Colletotrichum gloeosporioides; test: Antifungal activity against Colletotrichum gloeosporioides f. sp. jussiaea assessed as conidial germination at 100 ppm after 48 hr by microscopic analysis
[3] = tested on: Puccinia graminis f. sp. tritici; test: Antifungal activity against Puccinia graminis f. sp. tritici assessed as inhibition of uredospore germination after 48 hr by microscope-slide assay
[4] = tested on: Puccinia coronata; test: Antifungal activity against Puccinia coronata assessed as inhibition of uredospore germination after 48 hr by microscope-slide assay
[5] = tested on: Colletotrichum gloeosporioides; test: Antifungal activity against Colletotrichum gloeosporioides f. sp. jussiaea assessed as conidial germination at 3 ppm after 48 hr by microscopic analysis
[6] = tested on: Colletotrichum gloeosporioides; test: Antifungal activity against Colletotrichum gloeosporioides f. sp. jussiaea assessed as conidial germination at 10 ppm after 48 hr by microscopic analysis

Structure (SMILES): CCCCC[C@H]1CCCCC[C@H]2CC(=O)[C@@H](CCC(=O)O1)O2 [(+)-GLOEOSPORONE]
- Activity [1]: 81%
- Activity [2]: 44%

Structure (SMILES): CCCCC[C@@H]1CCCCC[C@@H]2CC(=O)[C@H](CCC(=O)O1)O2 [(-)-GLOEOSPORONE]
- Activity [1]: 82%
- Activity [2]: 49%

Structure (SMILES): COC(=O)C(=Cc1ccc(O)c(OC)c1)C(=O)OC
- ED50 [3]: 0.27 ng/mL (≈ 1.01 nM)
- ED50 [4]: 6.8 ng/mL (≈ 25.5 nM)

Structure (SMILES): CCCCC[C@H]1CCCCC[C@H]2CC(=O)[C@@H](CCC(=O)O1)O2.NN [7-EPIGLOEOSPORONE]
- Activity [1]: 82%
- Activity [2]: 45%

Structure (SMILES): COC(=O)/C=C\c1ccc(OC)c(OC)c1 [METHYL CIS-3,4-DIMETHOXYCINNAMATE]
- ED50 [3]: 3.68 ng/mL (≈ 16.6 nM)
- ED50 [4]: 0.013 ng/mL (≈ 0.0585 nM)

Structure (SMILES): C/C=C1/C(=O)Nc2ccccc21
- Activity [5]: 40%
- Activity [6]: 0%
- Activity [1]: 0%
- Activity [2]: 0%

Structure (SMILES): COC(=O)C(=Cc1ccc(OC)c(OC)c1)C(=O)OC [METHYL 3,4-DIMETHOXYBENZALMALONATE]
- ED50 [3]: 4.16 ng/mL (≈ 14.8 nM)
- ED50 [4]: 0.025 ng/mL (≈ 0.0892 nM)

Structure (SMILES): CCCCC[C@@H]1CCCCC[C@@H]2CC(=O)[C@H](CCC(=O)O1)O2.NN [13-EPIGLOEOSPORONE]
- Activity [1]: 81%
- Activity [2]: 48%

Structure (SMILES): C/C=C1\C(=O)Nc2ccccc21
- Activity [5]: 68%
- Activity [6]: 0%
- Activity [1]: 0%
- Activity [2]: 0%

Structure (SMILES): COC(=O)/C=C\c1ccc(O)c(OC)c1 [METHYL CIS-FERULATE]
- ED50 [3]: 0.18 ng/mL (≈ 0.864 nM)
- ED50 [4]: 5.57 ng/mL (≈ 26.8 nM)
